In patent US9951065B2 (Gilead Sciences, Inc., priority 2015, dated 2018) one finds EC50 data, which are given here for 28 molecules.

T1 sequence (P14902 whole entry): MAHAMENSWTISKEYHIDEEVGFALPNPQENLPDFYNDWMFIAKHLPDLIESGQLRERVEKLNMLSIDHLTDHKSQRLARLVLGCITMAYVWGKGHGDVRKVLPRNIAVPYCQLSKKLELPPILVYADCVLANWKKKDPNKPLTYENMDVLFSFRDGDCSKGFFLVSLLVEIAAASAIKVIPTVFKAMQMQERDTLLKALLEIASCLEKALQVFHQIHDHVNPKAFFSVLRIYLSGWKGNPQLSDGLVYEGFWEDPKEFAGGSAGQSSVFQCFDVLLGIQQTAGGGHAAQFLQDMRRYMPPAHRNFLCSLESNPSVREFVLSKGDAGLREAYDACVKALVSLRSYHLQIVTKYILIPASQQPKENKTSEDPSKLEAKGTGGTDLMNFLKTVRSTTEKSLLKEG

The assay addresses T1, IDO1 (Homo sapiens, UniProt P14902).
T1 construct: HeLa cells were treated with a test compound in the presence of IFNγ, which induces IDO1 expression; host or cells: H1-HeLa cells, IDO1 induced with IFNγ
The assay is described as follows: Cell-based (HeLa) assay for measurement of IDO1 inhibition (kynurenine levels in supernatant after IFNγ induction). Conditions: HeLa cells, IFNγ-induced IDO1, kynurenine in supernatant, 48 hour incubation; geometric mean of a minimum of four determinations. The essentials: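 IDO1 activity is read as kynurenine released into the medium, detected with Ehrlich's reagent (p-dimethylaminobenzaldehyde) at 480 nm after TCA treatment. HeLa cells were exposed 48 h to compounds in 0.5% DMSO alongside IFNγ induction. Values normalized to no-IFNγ and IFNγ controls; four-parameter EC50 given as geometric mean of ≥4 determinations.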
`OCCN(CCNc1nc2nccc(/C(=N/O)Nc3ccc(F)c(Cl)c3)c2[nH]1)C1CC1` [Example 407, N-(3-chloro-4-fluorophenyl)-2-((2-(cyclopropyl(2-hydroxyethyl)amino)ethyl)amino)-N′-hydroxy-1H-imidazo[4,5-b]pyridine-7-carboximidamide] displayed a 50% effective concentration (EC50) of 2120 nM.

In turn, `Cc1nnc(CNc2nc3nccc(/C(=N/O)Nc4ccc(F)c(Cl)c4)c3[nH]2)o1` [Example 427, N-(3-chloro-4-fluorophenyl)-N′-hydroxy-2-(((5-methyl-1,3,4-oxadiazol-2-yl)methyl)amino)-1H-imidazo[4,5-b]pyridine-7-carboximidamide] returned an EC50 of 1070 nM. For the molecule `CN1CCOCC1CNc1nc2c(F)c(F)cc(/C(=N/O)Nc3ccc(F)c(Cl)c3)c2[nH]1` (stereo not shown) [Example 429, N-(3-chloro-4-fluorophenyl)-4,5-difluoro-N′-hydroxy-2-(((4-methylmorpholin-3-yl)methyl)amino)-1H-benzo[d]imidazole-7-carboximidamide], the EC50 was determined as 1350 nM. Molecule `CN(C)CCNc1nc2c(F)c(F)cc(/C(=N/O)Nc3cccc(Br)c3)c2[nH]1` [Example 430, N-(3-bromophenyl)-2-((2-(dimethylamino)ethyl)amino)-4,5-difluoro-N′-hydroxy-1H-benzo[d]imidazole-7-carboximidamide] registered an EC50 of 180 nM. For `CN(C)CCNc1nc2c(F)c(F)cc(/C(=N/O)Nc3cccc(Cl)c3)c2[nH]1` [Example 431, N-(3-chlorophenyl)-2-((2-(dimethylamino)ethyl)amino)-4,5-difluoro-N′-hydroxy-1H-benzo[d]imidazole-7-carboximidamide], a half-maximal effect (EC50) was put at 139 nM. As to `CN(C)CCNc1nc2c(F)c(F)cc(/C(=N/O)Nc3ccc(F)c(Br)c3)c2[nH]1` [Example 432, N-(3-bromo-4-fluorophenyl)-2-((2-(dimethylamino)ethyl)amino)-4,5-difluoro-N′-hydroxy-1H-benzo[d]imidazole-7-carboximidamide], the EC50 was found to be 253 nM. The same measure for `O/N=C(\Nc1ccc(F)c(Cl)c1)c1cc(F)c(F)c2nc(NCCCN3CCOCC3)[nH]c12` [Example 433, N-(3-chloro-4-fluorophenyl)-4,5-difluoro-N′-hydroxy-2-((3-morpholinopropyl)amino)-1H-benzo[d]imidazole-7-carboximidamide]: 882 nM; for `O/N=C(\Nc1ccc(F)c(Cl)c1)c1cc(F)c(F)c2nc(NCCCN3CCCC3)[nH]c12` [Example 434, N-(3-chloro-4-fluorophenyl)-4,5-difluoro-N′-hydroxy-2-((3-(pyrrolidin-1-yl)propyl)amino)-1H-benzo[d]imidazole-7-carboximidamide]: 1240 nM. The result for `CN1CC(N)[C@H](Nc2nc3c(F)c(F)cc(/C(=N/O)Nc4ccc(F)c(Cl)c4)c3[nH]2)C1` (stereo partly drawn) [Example 435, 2-(((3R)-4-amino-1-methylpyrrolidin-3-yl)amino)-N-(3-chloro-4-fluorophenyl)-4,5-difluoro-N′-hydroxy-1H-benzo[d]imidazole-7-carboximidamide] reads 1810 nM; that for `CN(C)C(CNc1nc2c(F)c(F)cc(/C(=N/O)Nc3ccc(F)c(Cl)c3)c2[nH]1)c1ccccc1` (stereo not shown) [Example 436, N-(3-chloro-4-fluorophenyl)-2-((2-(dimethylamino)-2-phenylethyl)amino)-4,5-difluoro-N′-hydroxy-1H-benzo[d]imidazole-7-carboximidamide], 2020 nM; that for `CN(C)[C@@H]1CCCC[C@H]1Nc1nc2c(F)c(F)cc(/C(=N/O)Nc3ccc(F)c(Cl)c3)c2[nH]1` [Example 437, N-(3-chloro-4-fluorophenyl)-2-(((1R,2R)-2-(dimethylamino)cyclohexyl)amino)-4,5-difluoro-N′-hydroxy-1H-benzo[d]imidazole-7-carboximidamide], 998 nM. Turning to `CN(C)C1(CNc2nc3c(F)c(F)cc(/C(=N/O)Nc4ccc(F)c(Cl)c4)c3[nH]2)CCCC1` [Example 438, N-(3-chloro-4-fluorophenyl)-2-(((1-(dimethylamino)cyclopentyl)methyl)amino)-4,5-difluoro-N′-hydroxy-1H-benzo[d]imidazole-7-carboximidamide], the half-maximal effective concentration (EC50) is 838 nM. The result for `CN(C)[C@H]1CCC[C@H](Nc2nc3c(F)c(F)cc(/C(=N/O)Nc4ccc(F)c(Cl)c4)c3[nH]2)C1` [Example 439, N-(3-chloro-4-fluorophenyl)-2-(((1S,3S)-3-(dimethylamino)cyclohexyl)amino)-4,5-difluoro-N′-hydroxy-1H-benzo[d]imidazole-7-carboximidamide] reads 6800 nM; that for `CN(C)[C@@H]1CCC[C@H](Nc2nc3c(F)c(F)cc(/C(=N/O)Nc4ccc(F)c(Cl)c4)c3[nH]2)C1` [Example 440, N-(3-chloro-4-fluorophenyl)-2-(((1S,3R)-3-(dimethylamino)cyclohexyl)amino)-4,5-difluoro-N′-hydroxy-1H-benzo[d]imidazole-7-carboximidamide], 6660 nM. In turn, `CN(C)C1(CNc2nc3c(F)c(F)cc(/C(=N/O)Nc4ccc(F)c(Cl)c4)c3[nH]2)CCC1` [Example 441, N-(3-chloro-4-fluorophenyl)-2-(((1-(dimethylamino)cyclobutyl)methyl)amino)-4,5-difluoro-N′-hydroxy-1H-benzo[d]imidazole-7-carboximidamide] had an EC50 greater than 10000 nM. The same measure for `CN1CCC(Nc2nc3c(F)c(F)cc(/C(=N/O)Nc4ccc(F)c(Cl)c4)c3[nH]2)CC1` [Example 442, N-(3-chloro-4-fluorophenyl)-4,5-difluoro-N′-hydroxy-2-((1-methylpiperidin-4-yl)amino)-1H-benzo[d]imidazole-7-carboximidamide]: 2880 nM; for `CN1CCCC(Nc2nc3c(F)c(F)cc(/C(=N/O)Nc4ccc(F)c(Cl)c4)c3[nH]2)C1` (stereo not shown) [Example 443, N-(3-chloro-4-fluorophenyl)-4,5-difluoro-N′-hydroxy-2-((1-methylpiperidin-3-yl)amino)-1H-benzo[d]imidazole-7-carboximidamide]: 389 nM; for `CN(C)[C@H]1CCCC[C@@H]1Nc1nc2c(F)c(F)cc(/C(=N/O)Nc3ccc(F)c(Cl)c3)c2[nH]1` [Example 444, N-(3-chloro-4-fluorophenyl)-2-(((1S,2S)-2-(dimethylamino)cyclohexyl)amino)-4,5-difluoro-N′-hydroxy-1H-benzo[d]imidazole-7-carboximidamide]: 3140 nM. `O/N=C(\Nc1ccc(F)c(Cl)c1)c1cc(F)c(F)c2nc(N[C@H]3CCCNC3)[nH]c12` [Example 445, (S)—N-(3-chloro-4-fluorophenyl)-4,5-difluoro-N′-hydroxy-2-(piperidin-3-ylamino)-1H-benzo[d]imidazole-7-carboximidamide] yielded an EC50 of 1950 nM. With `O/N=C(\Nc1ccc(F)c(Cl)c1)c1cc(F)c(F)c2nc(N[C@@H]3CCCNC3)[nH]c12` [Example 446, (R)—N-(3-chloro-4-fluorophenyl)-4,5-difluoro-N′-hydroxy-2-(piperidin-3-ylamino)-1H-benzo[d]imidazole-7-carboximidamide], a half-maximal response (EC50) required 1490 nM. For the molecule `CN1CC[C@H](Nc2nc3c(F)c(F)cc(/C(=N/O)Nc4ccc(F)c(Cl)c4)c3[nH]2)C1` [Example 447, (S)—N-(3-chloro-4-fluorophenyl)-4,5-difluoro-N′-hydroxy-2-((1-methylpyrrolidin-3-yl)amino)-1H-benzo[d]imidazole-7-carboximidamide], the EC50 was found to be 325 nM. `CN(C)CC(O)CNc1nc2c(F)c(F)cc(/C(=N/O)Nc3ccc(F)c(Cl)c3)c2[nH]1` (stereo not shown) [Example 448, N-(3-chloro-4-fluorophenyl)-2-((3-(dimethylamino)-2-hydroxypropyl)amino)-4,5-difluoro-N′-hydroxy-1H-benzo[d]imidazole-7-carboximidamide] yielded an EC50 of 1120 nM. With `CN1CCN(CCNc2nc3c(F)c(F)cc(/C(=N/O)Nc4ccc(F)c(Cl)c4)c3[nH]2)CC1=O` [Example 449, N-(3-chloro-4-fluorophenyl)-4,5-difluoro-N′-hydroxy-2-((2-(4-methyl-3-oxopiperazin-1-yl)ethyl)amino)-1H-benzo[d]imidazole-7-carboximidamide], the EC50 was determined as 6250 nM. `CN(C)C1(CNc2nc3c(F)c(F)cc(/C(=N/O)Nc4ccc(F)c(Cl)c4)c3[nH]2)CCCCC1` [Example 450, N-(3-chloro-4-fluorophenyl)-2-(((1-(dimethylamino)cyclohexyl)methyl)amino)-4,5-difluoro-N′-hydroxy-1H-benzo[d]imidazole-7-carboximidamide] displayed an EC50 of 1590 nM. `CN1CCCCC(Nc2nc3c(F)c(F)cc(/C(=N/O)Nc4ccc(F)c(Cl)c4)c3[nH]2)C1` (stereo not shown) [Example 451, N-(3-chloro-4-fluorophenyl)-4,5-difluoro-N′-hydroxy-2-((1-methylazepan-3-yl)amino)-1H-benzo[d]imidazole-7-carboximidamide]: the EC50 was 205 nM. In turn, `O/N=C(\Nc1ccc(F)c(Cl)c1)c1cc(F)c(F)c2nc(NCCN3CC[C@H](O)C3)[nH]c12` [Example 452, (S)—N-(3-chloro-4-fluorophenyl)-4,5-difluoro-N′-hydroxy-2-((2-(3-hydroxypyrrolidin-1-yl)ethyl)amino)-1H-benzo[d]imidazole-7-carboximidamide] had an EC50 of 568 nM. As for `COCCN1CCCC(Nc2nc3c(F)c(F)cc(/C(=N/O)Nc4ccc(F)c(Cl)c4)c3[nH]2)C1` (stereo not shown) [Example 453, N-(3-chloro-4-fluorophenyl)-4,5-difluoro-N′-hydroxy-2-((1-(2-methoxyethyl)piperidin-3-yl)amino)-1H-benzo[d]imidazole-7-carboximidamide], the EC50 came to 651 nM.

With `COCCN1CCC(Nc2nc3c(F)c(F)cc(/C(=N/O)Nc4ccc(F)c(Cl)c4)c3[nH]2)C1` (stereo not shown) [Example 454, N-(3-chloro-4-fluorophenyl)-4,5-difluoro-N′-hydroxy-2-((1-(2-methoxyethyl)pyrrolidin-3-yl)amino)-1H-benzo[d]imidazole-7-carboximidamide], the EC50 is 247 nM.

A word on the EC50: it is the concentration needed to bring the measured effect to its halfway point. Higher therefore signals a need for much substance.
